Key:
Test in all cases: relative viability (nuclei count vs DMSO), 5 days (fraction); higher = more cells survive
[1] = compound: C1/C(=C\C2=CC=CS2)/C(=O)/C(=C/C3=CC=CS3)/C1 + CCNC(=O)c1noc(-c2cc(C(C)C)c(O)cc2O)c1-c1ccc(CN2CCOCC2)cc1 [Luminespib] (partner 0.01 µM)
Outline: (§1)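 The day after seeding in 1536-well plates, lung cancer cell lines were treated by pin tool with a single drug, or with a fixed anchor-drug dose together with five library-drug doses (not always all listed) in √10 steps. After 5 days, a combined fix-and-stain solution (final 0.05% Triton X-100, 1% formaldehyde, 1 ug/ml Hoechst) was added. Nuclei counted on 4× images gave relative viability as treated counts over vehicle counts, reported as the median of duplicate plates.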

TPCA-1 + Foretinib = compound: C1=CC(=CC=C1C2=CC(=C(S2)NC(=O)N)C(=O)N)F [TPCA-1] + COc1cc2c(Oc3ccc(NC(=O)C4(C(=O)Nc5ccc(F)cc5)CC4)cc3F)ccnc2cc1OCCCN1CCOCC1 [Foretinib] (partner 0.25 µM)
Outline: as §1

Lestaurtinib + OSI-027 = compound: C[C@]12O[C@H](C[C@]1(O)CO)n1c3ccccc3c3c4c(c5c6ccccc6n2c5c31)CNC4=O [Lestaurtinib] + COc1cccc2cc(-c3nc([C@H]4CC[C@H](C(=O)O)CC4)n4ncnc(N)c34)[nH]c12 [OSI-027] (partner 0.5 µM)
Outline: as §1

[2] = compound: C1/C(=C\C2=CC=CS2)/C(=O)/C(=C/C3=CC=CS3)/C1 + Nc1nc2[nH]cc(CCc3ccc(C(=O)N[C@@H](CCC(=O)O)C(=O)O)cc3)c2c(=O)[nH]1 [Pemetrexed] (partner 0.2 µM)
Outline: as §1

Cell Line | relative viability ([1]; first compound 0.2 µM) | relative viability ([1]; first compound 0.6325 µM) | relative viability ([1]; first compound 2 µM) | relative viability ([1]; first compound 6.325 µM) | relative viability ([1]; first compound 20 µM) | relative viability (TPCA-1 + Foretinib; first compound 0.04 µM) | relative viability (TPCA-1 + Foretinib; first compound 0.1265 µM) | relative viability (TPCA-1 + Foretinib; first compound 0.4 µM) | relative viability (TPCA-1 + Foretinib; first compound 1.265 µM) | relative viability (TPCA-1 + Foretinib; first compound 4 µM) | relative viability (Lestaurtinib + OSI-027; first compound 0.005 µM) | relative viability (Lestaurtinib + OSI-027; first compound 0.01581 µM) | relative viability (Lestaurtinib + OSI-027; first compound 0.05 µM) | relative viability (Lestaurtinib + OSI-027; first compound 0.1581 µM) | relative viability (Lestaurtinib + OSI-027; first compound 0.5 µM) | relative viability ([2]; first compound 0.2 µM) | relative viability ([2]; first compound 0.6325 µM) | relative viability ([2]; first compound 2 µM) | relative viability ([2]; first compound 6.325 µM) | relative viability ([2]; first compound 20 µM)
NCI-H1651 | 0.97 | 0.933 | 1.13 | 0.751 | 0.716 | 0.862 | 0.656 | 0.801 | 0.794 | 0.735 | 0.745 | 0.799 | 0.566 | 0.753 | 0.493 | 0.582 | 0.666 | 0.778 | 0.495 | 0.58
SW 1573 | 0.25 | 0.192 | 0.194 | 0.161 | 0.181 | 0.6 | 0.811 | 1.03 | 0.964 | 0.866 | 0.67 | 0.561 | 0.482 | 0.449 | 0.131 | 0.774 | 0.845 | 0.869 | 0.546 | 0.856
PC-3 [JPC-3] | 0.807 | 0.645 | 0.689 | 0.556 | 0.659 | 1.03 | 1.08 | 0.968 | 0.984 | 1.02 | 0.809 | 0.803 | 0.662 | 0.65 | 0.439 | – | 1.15 | 0.982 | 1.04 | 1.26
LOU-NH91 | 0.332 | 0.358 | 0.413 | 0.328 | 0.338 | 0.984 | 0.887 | 0.971 | 0.97 | 0.803 | 0.728 | 0.711 | 0.637 | 0.574 | 0.424 | 0.331 | 0.401 | 0.316 | 0.37 | 0.375
PC-14 | 0.139 | 0.145 | 0.179 | 0.187 | 0.15 | 1.01 | 0.916 | 0.957 | 1.01 | 0.79 | 0.805 | 0.592 | 0.609 | 0.623 | 0.116 | 0.145 | 0.166 | 0.136 | 0.131 | 0.142
NCI-H2087 | 0.215 | 0.161 | 0.177 | 0.133 | 0.158 | 1.52 | 0.99 | 1.09 | 0.894 | 0.432 | 0.627 | 0.634 | 0.531 | 0.408 | 0.338 | 0.635 | 0.7 | 0.621 | 0.529 | 0.639
LU99A | 0.245 | 0.201 | 0.268 | 0.224 | 0.281 | 0.917 | 0.745 | 0.78 | 0.636 | 0.436 | 0.288 | 0.263 | 0.262 | 0.249 | 0.203 | 0.217 | 0.185 | 0.172 | 0.17 | 0.164
BEN | 0.477 | 0.403 | 0.476 | 0.344 | 0.253 | 0.654 | 0.549 | 0.671 | 0.679 | 0.303 | 0.463 | 0.313 | 0.3 | 0.298 | 0.196 | 0.82 | 0.781 | 1.03 | 0.662 | 0.657
SK-LU-1 | 0.204 | 0.191 | 0.202 | 0.181 | 0.214 | 0.806 | 0.736 | 0.876 | 0.617 | 0.377 | 0.296 | 0.255 | 0.211 | 0.295 | 0.181 | 1.12 | 1.03 | 0.942 | 0.829 | 1.02
NCI-H1975 | 0.313 | 0.163 | 0.194 | 0.312 | 0.177 | 0.949 | 0.919 | 0.995 | 0.97 | 0.532 | 0.795 | 0.75 | 0.534 | 0.412 | 0.347 | 0.321 | 0.298 | 0.32 | 0.269 | 0.301
RERF-LC-KJ | 1.26 | 1.36 | 1.25 | 1.15 | 1.14 | 0.904 | 0.997 | 0.883 | 0.836 | 0.774 | 0.525 | 0.577 | 0.491 | 0.461 | 0.315 | 0.474 | 0.49 | 0.473 | 0.449 | 0.511
NCI-H441 | 0.331 | 0.377 | 0.343 | 0.37 | 0.345 | 0.487 | 0.856 | 0.841 | 0.834 | 0.668 | 0.597 | 0.589 | 0.279 | 0.342 | 0.303 | 0.273 | 0.261 | 0.264 | 0.27 | 0.264
LCLC-103H | 1.05 | 0.901 | 1.07 | 0.936 | 0.989 | 0.899 | 0.813 | 0.758 | 0.839 | 0.64 | 0.442 | 0.49 | 0.349 | 0.385 | 0.286 | 0.477 | 0.444 | 0.447 | 0.433 | 0.47
NCI-H1915 | 0.851 | 0.786 | 0.741 | 0.356 | 0.821 | 1.17 | 1.06 | 1.15 | 1.07 | 0.872 | 0.687 | 0.477 | 0.42 | 0.337 | 0.246 | 0.456 | 0.529 | 0.479 | 0.447 | 0.475

— the supplement of paper PMC10307832
